In patent publication US20240376099A1, “COMPOUNDS AND COMPOSITIONS AS INHIBITORS OF ENDOSOMAL TOLL-LIKE RECEPTORS” (Novartis AG, priority 2016, published 2024) one finds IC50 data, which are given here for nine molecules.

pIC50: −log10 of the molar value. Bounds are passed on as bounds.

The target in the assay is T1, TLR9 (Homo sapiens, UniProt Q9NR96).
T1 construct: Fresh blood was collected from normal human donors; endogenous in cells; host or cells: human PBMCs from fresh donor blood
T1 sequence (Q9NR96 26-1032): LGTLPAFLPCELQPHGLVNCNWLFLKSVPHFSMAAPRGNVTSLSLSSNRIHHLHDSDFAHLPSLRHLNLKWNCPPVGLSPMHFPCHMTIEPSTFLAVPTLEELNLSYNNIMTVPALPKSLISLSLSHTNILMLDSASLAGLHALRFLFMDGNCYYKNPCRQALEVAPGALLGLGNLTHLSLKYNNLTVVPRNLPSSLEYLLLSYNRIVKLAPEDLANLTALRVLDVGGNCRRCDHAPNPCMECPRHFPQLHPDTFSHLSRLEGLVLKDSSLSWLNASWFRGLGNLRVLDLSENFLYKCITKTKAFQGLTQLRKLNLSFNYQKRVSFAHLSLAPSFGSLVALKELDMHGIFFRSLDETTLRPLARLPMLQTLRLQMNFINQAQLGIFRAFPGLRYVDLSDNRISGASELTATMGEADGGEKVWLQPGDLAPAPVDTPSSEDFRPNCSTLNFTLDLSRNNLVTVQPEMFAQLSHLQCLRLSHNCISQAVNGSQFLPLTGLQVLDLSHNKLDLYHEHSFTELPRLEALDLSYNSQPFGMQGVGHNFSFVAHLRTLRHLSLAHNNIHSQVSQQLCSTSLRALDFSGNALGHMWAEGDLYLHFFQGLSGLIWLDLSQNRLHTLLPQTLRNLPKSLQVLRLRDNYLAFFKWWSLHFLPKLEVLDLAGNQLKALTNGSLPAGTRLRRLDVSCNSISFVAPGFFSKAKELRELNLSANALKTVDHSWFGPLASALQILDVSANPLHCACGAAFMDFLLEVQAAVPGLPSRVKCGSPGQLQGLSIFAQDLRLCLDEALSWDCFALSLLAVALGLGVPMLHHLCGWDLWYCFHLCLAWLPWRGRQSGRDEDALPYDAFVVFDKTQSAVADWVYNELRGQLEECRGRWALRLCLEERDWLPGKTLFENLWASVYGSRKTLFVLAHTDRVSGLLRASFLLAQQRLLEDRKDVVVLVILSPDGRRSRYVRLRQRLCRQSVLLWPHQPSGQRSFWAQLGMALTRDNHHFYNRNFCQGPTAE
Description: huPBMC TLR9 Antagonist IFNα Assay. It is filed as cell-based. The note with it: human PBMCs stimulated with ODN2216 0.3 μM, 14-16 hrs; IFNα2b AlphaLISA read-out. In a few lines:
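Human PBMCs from fresh donor blood (150,000 cells/well) stimulated 14–16 h at 37 °C with DOTAP-complexed ssRNA40 (final 1 μg/ml for TLR8, 10 μg/mL for TLR7) or ODN2216 (final 0.3 μM, TLR9), 0.25% DMSO, ten-point 1/3 compound dilutions. Supernatant IL-6 read by HTRF (TLR8); IFNα by IFNα2b AlphaLISA (TLR7/TLR9).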
(Alpha assays give light when donor and acceptor beads are brought close together.)
On to `Cc1nc(N2CCc3c(c(C)nn3CC34CCC(N5CCOCC5)(CC3)CC4)C2)c2c(n1)c(C)nn2C` [compound 25, 4-(4-((3-methyl-5-(1,3,5-trimethyl-1H-pyrazolo[4,3-d]pyrimidin-7-yl)-4,5,6,7-tetrahydro-1H-pyrazolo[4,3-c]pyridin-1-yl)methyl)bicyclo[2.2.2]octan-1-yl)morpholine], for which the pIC50 is below 5.09.

Regarding `Cc1nc(N2CCc3c(c(C)nn3CC34CCC(NC5CCC5)(CC3)CC4)C2)c2c(n1)c(C)nn2C` [compound 27, N-cyclobutyl-4-((3-methyl-5-(1,3,5-trimethyl-1H-pyrazolo[4,3-d]pyrimidin-7-yl)-4,5,6,7-tetrahydro-1H-pyrazolo[4,3-c]pyridin-1-yl)methyl)bicyclo[2.2.2]octan-1-amine], the pIC50 was below 5.00.

As for `Cc1nc(N2CCc3c(c(C)nn3CC34CCC(N(C5CCC5)C5CCC5)(CC3)CC4)C2)c2c(n1)c(C)nn2C` [compound 28, N,N-dicyclobutyl-4-((3-methyl-5-(1,3,5-trimethyl-1H-pyrazolo[4,3-d]pyrimidin-7-yl)-4,5,6,7-tetrahydro-1H-pyrazolo[4,3-c]pyridin-1-yl)methyl)bicyclo[2.2.2]octan-1-amine], the pIC50 was below 5.00.

With `Cc1nc(N2CCc3c(c(C)nn3CC34CCC(N5CCCCC5)(CC3)CC4)C2)c2cn[nH]c2n1` [compound 29, 6-methyl-4-(3-methyl-1-((4-(piperidin-1-yl)bicyclo[2.2.2]octan-1-yl)methyl)-6,7-dihydro-1H-pyrazolo[4,3-c]pyridin-5(4H)-yl)-1H-pyrazolo[3,4-d]pyrimidine], the pIC50 is below 5.00.

Take `Cc1nc(N2CCc3c(c(C)nn3CC34CCC(N5CCCC5)(CC3)CC4)C2)c2cn[nH]c2n1` [compound 30, 6-methyl-4-(3-methyl-1-((4-(pyrrolidin-1-yl)bicyclo[2.2.2]octan-1-yl)methyl)-6,7-dihydro-1H-pyrazolo[4,3-c]pyridin-5(4H)-yl)-1H-pyrazolo[3,4-d]pyrimidine]: the pIC50 was below 5.00.

Consider `Cc1nc(N2CCc3c(c(C)nn3CC34CCC(NCC5(CO)COC5)(CC3)CC4)C2)c2c(n1)c(C)nn2C` [compound 31, (3-(((4-((3-methyl-5-(1,3,5-trimethyl-1H-pyrazolo[4,3-d]pyrimidin-7-yl)-4,5,6,7-tetrahydro-1H-pyrazolo[4,3-c]pyridin-1-yl)methyl)bicyclo[2.2.2]octan-1-yl)amino)methyl)oxetan-3-yl)methanol], for which the negative logarithm of the IC50 (pIC50) was 5.63.

For the molecule `Cc1nc(N2CCc3c(c(C)nn3CC34CCC(NC(=O)[C@@H]5COCCN5)(CC3)CC4)C2)c2c(n1)c(C)nn2C` [compound 33, (S)-N-(4-((3-methyl-5-(1,3,5-trimethyl-1H-pyrazolo[4,3-d]pyrimidin-7-yl)-4,5,6,7-tetrahydro-1H-pyrazolo[4,3-c]pyridin-1-yl)methyl)bicyclo[2.2.2]octan-1-yl)morpholine-3-carboxamide], the pIC50 was below 5.00.

`Cc1nc(N2CCc3c(c(C)nn3CC34CCC(NC(=O)[C@@H]5CNCCO5)(CC3)CC4)C2)c2c(n1)c(C)nn2C` [compound 34, (S)-N-(4-((3-methyl-5-(1,3,5-trimethyl-1H-pyrazolo[4,3-d]pyrimidin-7-yl)-4,5,6,7-tetrahydro-1H-pyrazolo[4,3-c]pyridin-1-yl)methyl)bicyclo[2.2.2]octan-1-yl)morpholine-2-carboxamide]: the pIC50 was 5.24.

Consider `Cc1nc(N2CCc3c(c(C)nn3CC34CCC(NC(=O)[C@H]5CNCCO5)(CC3)CC4)C2)c2c(n1)c(C)nn2C` [compound 36, (R)-N-(4-((3-methyl-5-(1,3,5-trimethyl-1H-pyrazolo[4,3-d]pyrimidin-7-yl)-4,5,6,7-tetrahydro-1H-pyrazolo[4,3-c]pyridin-1-yl)methyl)bicyclo[2.2.2]octan-1-yl)morpholine-2-carboxamide], for which the pIC50 was 5.30.

The pIC50 is −log10 of the IC50, conventionally taken in molar units.
